According to patent publication US10543160B2, “Cosmetic composition including water soluble scrub particles containing polypeptide and/or cell culture” (PAEAN AESTHETICS INC., priority 2015, dated 2020):

Test system: 3T3 fibroblasts
Experiment: Measurement of EGF activities using 3T3 fibroblasts, corrected to NIBSC EGF standard product
Type: cell-based
Details: recombinant EGF of purity 90% or more
Method: According to an embodiment of the present invention, the EGF may be an EGF which is prepared from a recombinant E. coli or a plant and is purified to a purity of 90% or more.

epidermal growth factor [EGF, peptide of 6,200 Da with 53 amino acid residues, prepared from recombinant E. coli or a plant, purity 90% or more]
EGF activity per mg: one million
